Test results: US20110124033A1, “FLUORESCENCE BASED ASSAY TO DETECT SODIUM/CALCIUM EXCHANGER (NCX ) "REVERSE MODE" MODULATING COMPOUNDS” (SANOFI-AVENTIS, priority 2008, published 2011)

Assays:
human NCX3 = human NCX3 (Homo sapiens, UniProt P57103)
Description: (§1) The cultured cells were detached by application of iced PBS (phosphate buffered saline) or Trypsin at least 18 hours prior to electrophysiological experiments and replated on cover slips.
(§2) Two bath solutions and pipette solutions were prepared for patch clamp experiments with the following composition:
(§3) 135 mM NMG, 5 mM MgCl2, 2 mM CaCl2, 4 mM EGTA, 30 mM HEPES, pH 7.4
(§4) 139 mM NMG, 5 mM MgCl2, 2 mM CaCl2, 30 mM HEPES, pH 7.4
(§5) 100 mM NaCl, 5 mM KCl, 2 mM CaCl2, 2 mM MgCl2, 2.1 mM EGTA, 35 mM TEA-Cl, 4 mM Mg-ATP, 0.5 mM Na-GTP,
(§6) 5.63 mM Phosphocreatine, 30 mM HEPES, […] Creatine Phosphokinase (70 ml pipette solution+3500 U filtered Creatine Phosphokinase, ad 100 ml pipette solution), pH 7.4 (NaOH)
(§7) To inhibit NCX currents, 5 mM nickel chloride was dissolved in bath solution “high calcium”. NCX activity was measured using the patch clamp technique in the whole cell configuration. The cells were clamped at room temperature (20-25° C.) to a holding potential of 0 mV. NCX currents were evoked by application of 2 mM external calcium (bathsolution “high calcium”) for 4 seconds (=control). Calcium application was repeated every 20 s. After 5 stimulations, inhibition by nickel was tested using the same protocol but activation with calcium in the presence of 5 mM nickel (5 replicates). Finally, 5 calcium pulses were applied again for washout studies. To characterize NCX currents, peak currents, transported charge and the time constant of signal decay were investigated and analyzed according to the report. All data are presented as mean±SEM.

human NCX2 = human NCX2 (Homo sapiens, UniProt Q9UPR5)
Description: as §1, §2, §3, §4, §5, §6, §7

human NCX1 = human NCX1 (Homo sapiens, UniProt P32418); settings: 5 mM nickel
Description: as §1, §2, §3, §4, §5, §6, §7

[1] = after 5 mM nickel, 5 calcium pulses for washout

Chain of human NCX3 (P57103 31-924 isoform P57103-6 limits assumed): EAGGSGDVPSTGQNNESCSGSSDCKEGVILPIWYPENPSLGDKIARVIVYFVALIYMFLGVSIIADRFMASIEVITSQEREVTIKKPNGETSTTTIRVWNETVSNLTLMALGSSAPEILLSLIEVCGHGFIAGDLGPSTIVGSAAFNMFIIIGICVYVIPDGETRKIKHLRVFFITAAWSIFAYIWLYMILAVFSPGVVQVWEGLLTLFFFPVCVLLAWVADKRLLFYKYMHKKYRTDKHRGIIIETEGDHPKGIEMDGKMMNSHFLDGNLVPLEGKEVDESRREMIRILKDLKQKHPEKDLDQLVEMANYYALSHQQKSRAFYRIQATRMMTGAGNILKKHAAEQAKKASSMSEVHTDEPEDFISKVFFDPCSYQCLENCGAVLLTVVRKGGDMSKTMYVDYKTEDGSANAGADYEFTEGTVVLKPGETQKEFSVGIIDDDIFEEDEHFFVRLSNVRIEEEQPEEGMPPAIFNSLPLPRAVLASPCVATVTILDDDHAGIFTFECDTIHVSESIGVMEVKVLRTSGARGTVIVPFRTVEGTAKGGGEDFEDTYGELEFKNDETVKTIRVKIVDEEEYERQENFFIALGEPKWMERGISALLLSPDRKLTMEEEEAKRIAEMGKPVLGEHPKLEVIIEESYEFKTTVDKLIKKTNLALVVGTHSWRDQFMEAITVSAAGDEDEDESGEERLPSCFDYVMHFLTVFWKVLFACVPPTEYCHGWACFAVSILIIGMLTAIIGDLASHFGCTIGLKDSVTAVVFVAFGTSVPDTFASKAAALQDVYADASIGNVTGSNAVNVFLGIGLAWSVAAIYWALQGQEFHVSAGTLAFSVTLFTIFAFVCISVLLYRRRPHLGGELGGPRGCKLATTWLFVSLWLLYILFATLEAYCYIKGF
Chain of human NCX2 (Q9UPR5 21-921): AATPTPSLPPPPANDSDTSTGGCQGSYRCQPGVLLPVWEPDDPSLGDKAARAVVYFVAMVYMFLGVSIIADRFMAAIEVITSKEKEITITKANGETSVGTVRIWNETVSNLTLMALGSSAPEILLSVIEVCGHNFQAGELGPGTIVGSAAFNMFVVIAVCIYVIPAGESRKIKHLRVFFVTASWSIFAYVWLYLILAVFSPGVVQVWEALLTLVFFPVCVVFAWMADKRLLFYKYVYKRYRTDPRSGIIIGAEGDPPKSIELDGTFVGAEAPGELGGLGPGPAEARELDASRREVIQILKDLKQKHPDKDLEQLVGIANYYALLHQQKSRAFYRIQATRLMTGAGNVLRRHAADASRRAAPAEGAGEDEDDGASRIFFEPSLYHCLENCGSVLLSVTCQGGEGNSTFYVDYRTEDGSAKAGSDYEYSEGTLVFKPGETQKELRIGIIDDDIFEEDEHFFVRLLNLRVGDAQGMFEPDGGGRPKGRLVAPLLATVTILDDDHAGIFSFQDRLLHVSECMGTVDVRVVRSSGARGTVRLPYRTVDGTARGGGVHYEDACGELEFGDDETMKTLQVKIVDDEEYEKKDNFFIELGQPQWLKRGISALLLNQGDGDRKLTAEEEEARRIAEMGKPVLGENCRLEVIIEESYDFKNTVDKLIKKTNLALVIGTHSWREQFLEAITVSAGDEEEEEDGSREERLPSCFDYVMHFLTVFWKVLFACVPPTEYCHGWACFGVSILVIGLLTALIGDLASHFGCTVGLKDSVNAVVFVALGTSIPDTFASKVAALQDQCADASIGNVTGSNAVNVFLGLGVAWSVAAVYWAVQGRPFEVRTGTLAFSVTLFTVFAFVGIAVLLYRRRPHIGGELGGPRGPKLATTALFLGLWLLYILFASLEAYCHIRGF

## [Cl][Ni][Cl] [nickel, nickel chloride]
Human NCX3; 5 mM nickel
  Block of NCX3 outward currents (in words): completely and reversible blocked
Human NCX3; [1]
  Washout after nickel block, NCX3 currents: 111.5±2.4%
Human NCX2; 5 mM nickel
  Block of NCX2 outward currents (in words): completely and reversible blocked
Human NCX2; [1]
  Washout after nickel block, NCX2 currents: 100.2±1.9%
Human NCX1
  Block of NCX1 outward currents (in words): completely and reversible blocked
Human NCX1; reverse mode, 2 mM external Ca2+, holding potential 0 mV
  Block of NCX1 outward currents: 91.3±3.3%
